Assay results taken from article PMC3251870 (British Journal of Cancer, 2011).
Where two headings read alike, the source gives them in different places.

Tests used:
H1299 cells = assay: MTS cell viability, H1299; assay type: cell-based, human; settings: H1299 NSCLC, 4 days
Procedure: (§1) All human cancer cell lines were maintained in RPMI media supplemented with 5% (lung and breast cancer cells) or 10% (melanoma cells) fetal bovine serum. […] Human mammary epithelial cells immortalised with telomerase were maintained in complete MEGM media from Cambrex (East Rutherford, NJ, USA).
(§2) Absorbance at 490 and 650 nm (reference wavelength) was measured by a Spectra Max (Molecular Devices, Sunnyvale, CA, USA) or a FlouroStar Omega (BMG Biosciences, Ortenberg, Germany) plate reader. Data were normalised to the untreated controls (100% viability). Each cell line was tested in 1–5 independent assays, each containing 4–8 replicates. IC50 values were calculated using DIVISA, a high-throughput software, developed in-house (manuscript in preparation), for storing and analysing drug sensitivity assays. Dose–response curves were plotted using a non-linear regression model and IC50s were determined from the fitted curves.

H1355 cells = assay: MTS cell viability, H1355; assay type: cell-based, human; settings: H1355 NSCLC, 4 days
Procedure: as §1, §2

[1] = test system: HBEC16KT human bronchial epithelial cells; assay: MTS cell viability, HBEC16KT; assay type: cell-based; settings: 4 days
Procedure: as §1, §2

H1437 cells = assay: ATP-based cell viability, H1437 vs H1299; set-up: species or system human; settings: cell viability by ATP measurements
From the text: Supplementary Material Chang et al
This supplementary material contains:
-Supplementary Figure Legends
-Supplementary Figures 1- 4
Please see separate excel file for Supplementary Table 1.
Supplementary Figure Legends
Supplementary Figure 1: Expanded panel of cell lines showing distinct relative sensitivities to
TSA vs. depsipeptide. Lung cancer cell lines not depicted in the main Figure 1A are shown in A)
and an expanded set of breast cancer cells and HMES and melanomacells and melanocytes in
Supplementary Figure 2: Differential response to HDAC inhibitors is a general phenomenon. A)
H1299 also by ATP measurements.
Supplementary Figure 3: HDAC ex pression levels may contribute to drug sensitivity. A)
B) HDAC 2 levels are similar in the cell line
Supplementary Figure 4: Validation of microarray gene expression differences in the
H1993/H2073 cell line pair confirmed overexpression of glutathione metabolism genes in H2073
(shown in A) and downregulation of chromatin interacting proteins (B).

H2085 cells = assay: MTS cell viability, H2085; assay type: cell-based, human; settings: H2085 NSCLC, 4 days
Procedure: as §1, §2

SKMEL28 melanoma cells = assay: MTS cell viability, SKMEL28; assay type: cell-based, human; settings: 4 days
Procedure: as §1, §2

HCC1806 cells = assay: MTS cell viability, HCC1806; assay type: cell-based, human; settings: HCC1806 breast cancer line, 4 days
Procedure: as §1, §2

MCF-7 cells = assay: MTS cell viability, MCF-7; assay type: cell-based, human; settings: 4 days; for IC50: MCF-7 breast cancer line
Procedure: as §1, §2

[2] = target: purified recombinant HDAC1 (Homo sapiens, UniProt Q13547); settings: 50 nM
From the text: (§4) Cell extracts or purified recombinant HDAC enzymes were used in standard HDAC activity assays using Millipore's HDAC Fluorometric Assay Kit (Millipore, Billerica, MA, USA), according to the manufacturer's protocol. A FluoroStar Omega plate reader (BMG Biosciences) was used for fluorescent detection. Purified recombinant active HDACs 1, 5 and 8 were purchased from Millipore/Upstate.

[3] = test system: histone 3 acetylation in H358 cells; assay: Western blot, acetylated histone 3; assay type: cell-based, human; settings: 24 h
Procedure: (§3) Exponentially growing cells were treated with the appropriate compounds and harvested 4 or 24 h later in a standard nuclear lysis buffer and whole cell lysates were quantified. Equal amounts of total protein were loaded onto 4–12% Bis-Tris SDS gels and subjected to electrophoresis. After transferring onto nitrocellulose membranes, blots were probed for acetylated tubulin (Sigma, St Louis, MO, USA; T6793), acetylated histone 3 (Millipore/Upstate #06-599), acetylated histone 4 (Millipore/Upstate #07-329) or trimethylated histone 3 at lysine 9 (Millipore/Upstate #07-523). Actin (Santa Cruz, Santa Cruz, CA, USA; #1616) and HDAC1 (Affinity Bioreagents, Rockford, IL, USA; #PA1-860) were probed as loading controls. Quantification of bands in films was performed using two independent methods, which yielded similar results, Image J (NIH public software) and Quantity one (Bio-Rad, Hercules, CA, USA). The average of the two methods±s.e.m. is shown as specified in figure legends. For the MDR western analysis, a primary antibody against P-glycoprotein from Calbiochem (Darmstadt, Germany) was used according to the manufacturer's recommendations and HSP90 (Santa Cruz) was used as a loading control.

[4] = test system: OMM2.3 uveal melanoma cells; assay: MTS cell viability, OMM2.3; assay type: cell-based, human; settings: 4 days
Procedure: as §1, §2

[5] = test system: total HDAC activity, C127 cells; assay: Total HDAC activity in lysates from drug-treated cells; assay type: cell-based; settings: 25 nM
From the text: HDAC2 was purified as described below.

[6] = test system: HCC4018 lung cancer cells; assay: MTS cell viability, HCC4018; assay type: cell-based, human; settings: HCC4018 (lung cancer, matched to HBEC34KT), MTS, 4 days
Procedure: as §1, §2

[7] = target: purified recombinant HDAC8 (Homo sapiens, UniProt Q9BY41)
From the text: as §4

H2073 cells = assay: MTS cell viability, H2073; assay type: cell-based, human; settings: H2073 NSCLC, MTS, 4 days
Procedure: as §1, §2

LOXIMVI melanoma cells = assay: MTS cell viability, LOXIMVI; assay type: cell-based, human; settings: LOXIMVI melanoma, 4 days
Procedure: as §1, §2

M14 melanoma cells = assay: MTS cell viability, M14; assay type: cell-based, human; settings: 4 days
Procedure: as §1, §2

recombinant murine HDAC2 = target: T1, recombinant murine HDAC2 (Mus musculus, UniProt P70288); assay: HDAC fluorometric activity assay, purified HDAC2; assay type: biochemical; settings: 400 nM
T1 construct: The murine HDAC2 open reading frame was amplified by PCR from the plasmid pME18S-HDAC2; FLAG (DYKDDDDK) (C); made in house; host or cells: Sf9 insect cells (baculovirus)
From the text: Cell extracts or purified recombinant HDAC enzymes were used in standard HDAC activity assays using Millipore's HDAC Fluorometric Assay Kit (Millipore, Billerica, MA, USA), according to the manufacturer's protocol. A FluoroStar Omega plate reader (BMG Biosciences) was used for fluorescent detection. […] HDAC2 was purified as described below.

[8] = test system: acetylated tubulin in H358 cells; assay: Western blot, acetylated tubulin; assay type: cell-based, human; settings: 200 nM, 24 h
Procedure: as §3

Chain of purified recombinant HDAC8 (Q9BY41 whole entry, species assumed): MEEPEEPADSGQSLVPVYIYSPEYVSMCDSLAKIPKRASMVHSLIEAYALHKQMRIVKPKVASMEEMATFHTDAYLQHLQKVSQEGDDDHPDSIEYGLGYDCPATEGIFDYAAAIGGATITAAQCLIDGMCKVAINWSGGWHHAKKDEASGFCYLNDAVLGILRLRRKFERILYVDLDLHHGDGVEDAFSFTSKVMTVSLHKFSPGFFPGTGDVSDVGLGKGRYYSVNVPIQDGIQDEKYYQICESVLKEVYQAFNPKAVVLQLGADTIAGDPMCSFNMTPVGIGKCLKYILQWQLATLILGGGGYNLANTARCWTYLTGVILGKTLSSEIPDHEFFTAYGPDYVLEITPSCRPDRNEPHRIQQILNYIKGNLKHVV
Chain of purified recombinant HDAC1 (Q13547 whole entry, species assumed): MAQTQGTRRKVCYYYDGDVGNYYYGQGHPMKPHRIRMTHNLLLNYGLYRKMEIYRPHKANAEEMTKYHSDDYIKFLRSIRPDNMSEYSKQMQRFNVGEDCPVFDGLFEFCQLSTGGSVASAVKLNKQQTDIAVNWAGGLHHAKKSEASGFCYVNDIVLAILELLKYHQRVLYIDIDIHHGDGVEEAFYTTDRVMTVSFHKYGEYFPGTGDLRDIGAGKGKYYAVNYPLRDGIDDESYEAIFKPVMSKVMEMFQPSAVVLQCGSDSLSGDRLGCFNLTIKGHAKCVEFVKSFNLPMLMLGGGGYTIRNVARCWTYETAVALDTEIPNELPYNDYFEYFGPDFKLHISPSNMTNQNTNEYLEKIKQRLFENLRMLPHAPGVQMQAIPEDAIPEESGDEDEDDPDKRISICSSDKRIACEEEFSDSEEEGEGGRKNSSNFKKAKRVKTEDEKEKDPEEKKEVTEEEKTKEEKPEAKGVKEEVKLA
T1 sequence (P70288 whole entry): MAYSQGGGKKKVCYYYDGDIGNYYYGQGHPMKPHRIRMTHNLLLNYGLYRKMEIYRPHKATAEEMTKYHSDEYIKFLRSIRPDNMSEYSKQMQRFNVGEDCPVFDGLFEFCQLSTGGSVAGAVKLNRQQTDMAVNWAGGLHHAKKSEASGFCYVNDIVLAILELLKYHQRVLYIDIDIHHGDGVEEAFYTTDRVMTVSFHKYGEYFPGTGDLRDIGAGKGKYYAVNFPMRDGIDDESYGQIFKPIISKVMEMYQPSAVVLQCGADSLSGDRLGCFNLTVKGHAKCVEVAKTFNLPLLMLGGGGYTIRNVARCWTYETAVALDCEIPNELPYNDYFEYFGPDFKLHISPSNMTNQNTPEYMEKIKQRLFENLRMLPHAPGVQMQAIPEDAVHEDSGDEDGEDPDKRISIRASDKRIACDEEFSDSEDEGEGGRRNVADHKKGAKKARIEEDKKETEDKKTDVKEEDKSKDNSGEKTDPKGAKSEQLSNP

C/C=C1\NC(=O)[C@H]2CSSCC/C=C/[C@H](CC(=O)N[C@H](C(C)C)C(=O)N2)OC(=O)[C@H](C(C)C)NC1=O [Depsipeptide, depsipeptide]
IC50 (H1299 cells): 12.1 nM | IC50 (H1355 cells): 1.8 nM | IC50 [1]: 4.9 nM | sensitivity of H1437 compared to H1299 (H1437 cells): greater sensitivity | IC50 (H2085 cells): 6.9 nM | IC50 (SKMEL28 melanoma cells): 0.8 nM | IC50 (HCC1806 cells): 1.8 nM | surviving population (MCF-7 cells; MCF7 cells): 30–40% | IC50 (MCF-7 cells): 4.2 nM | inhibition of HDAC1 activity [2]: no inhibition | global level of histone 3 acetylation ([3]; 25 nM): globally increased | IC50 [4]: 2.7 nM | total HDAC activity in lysates made from treated cells vs DMSO-treated cells [5]: strong inhibition | IC50 [6]: 4.2 nM | inhibition of HDAC8 activity ([7]; 50 nM): no effect | inhibition of HDAC8 activity ([7]; 0.5 μM): no effect | IC50 (H2073 cells): 37.1 nM | IC50 (LOXIMVI melanoma cells): 1.2 nM | IC50 (M14 melanoma cells): 2.4 nM

CC(/C=C/C(=O)NO)=C\[C@@H](C)C(=O)c1ccc(N(C)C)cc1 [TSA, trichostatin A]
IC50 (H1299 cells): 150 nM | IC50 (H1355 cells): 107 nM | IC50 [1]: 260 nM | IC50 (H2085 cells): 390 nM | IC50 (SKMEL28 melanoma cells): 400 nM | IC50 (HCC1806 cells): 41 nM | IC50 (MCF-7 cells): 90 nM | inhibition of HDAC2 activity (recombinant murine HDAC2): fully inhibited | global level of histone 3 acetylation ([3]; 200 nM): globally increased | acetylated tubulin levels [8]: increase | IC50 [4]: 81 nM | IC50 [6]: 23 nM | IC50 (H2073 cells): 63.7 nM | IC50 (LOXIMVI melanoma cells): 57 nM | IC50 (M14 melanoma cells): 98 nM
